Test results reported in patent EP0168709A1, “Process for preparing chlorinated phosphorylmethylcarbonyl derivatives, and intermediates for their preparation” (BAYER AG, priority 1984, dated 1986).

Columns and labels:
Assay type in all cases: in vivo
[1] = test system: Testpflanzen; experiment: Pre-emergence test, greenhouse (overall statement); conditions: result in words
Excerpt: (§1) Pre-emergence-Test - Gewächshaus
(§2) Lösungsmittel: 5 Gewichtsteile Aceton
(§3) Emulgator: 1 Gewichtsteil Alkylarylpolyglykolether
(§4) Zur Herstellung einer zweckmäßigen Wirkstoffzubereitung vermischt man 1 Gewichtsteil Wirkstoff mit der angegebenen Menge Lösungsmittel, gibt die angegebene Menge Emulgator zu und verdünnt das Konzentrat mit Wasser auf die gewünschte Konzentration.
(§5) Samen der Testpflanzen werden in normalen Boden ausgesät und nach 24 Stunden mit der Wirkstoffzubereitung begossen. Dabei hält man die Wassermenge pro Flächeneinheit zweckmäßigerweise konstant. Die Wirkstoffkonzentration in der Zubereitung spielt keine Rolle, entscheidend ist nur die Aufwandmenge des Wirkstoffs pro Flächeneinheit. Nach drei Wochen wird der Schädigungsgrad der Pflanzen bonitiert in % Schädigung im Vergleich zur Entwicklung der unbehandelten Kontrolle. Es bedeuten: • O % = keine Wirkung (wie unbehandelte Kontrolle) 100 % = totale Vernichtung

[2] = test system: Sorghum halepense; experiment: Pre-emergence test, greenhouse; conditions: 0,5 kg/ha, rated after three weeks vs untreated control, 0 % = no effect, 100 % = total destruction
Excerpt: as §1, §2, §3, §4, §5

[3] = test system: Baum-wolle; experiment: Pre-emergence test, greenhouse; conditions: 0,5 kg/ha, rated after three weeks vs untreated control, 0 % = no effect, 100 % = total destruction
Excerpt: as §1, §2, §3, §4, §5

[4] = test system: Soja-bohnen; experiment: Pre-emergence test, greenhouse; conditions: 0,5 kg/ha, rated after three weeks vs untreated control, 0 % = no effect, 100 % = total destruction
Excerpt: as §1, §2, §3, §4, §5

SMILES: CC(C)CC(=O)C(Cl)(Cl)P(=O)(OC(C)C)OC(C)C [Beispiel 1, O,O-Di-i-propyl-(1,1-dichlor-4-methyl-2-oxo-pentan)-phosphonsäureester]
- Wirksamkeit [1]: ausgezeichnete Wirksamkeit
- Schädigungsgrad der Pflanzen (% Schädigung), Sorghum halepense [2]: 100%
- Schädigungsgrad der Pflanzen (% Schädigung), Baum-wolle [3]: 0%
- Schädigungsgrad der Pflanzen (% Schädigung), Soja-bohnen [4]: 0%
